# Test results published in patent publication US10428336B2, “Method for modulating plant growth” (The Australian National University, priority 2013, dated 2019).
# Square brackets hold non-standard residues; d marks the D form. Ends that are not written are not given here. Hyp = O=C(O)[C@@H]1C[C@@H](O)CN1
# Key:
# M. truncatula roots = test: Exogenous application of synthetic CEP peptides to M. truncatula roots; type: in vivo, Medicago truncatula; conditions: synthetic ligand applied to roots
# Description: The CEP peptides were synthesized at the Biomolecular Resource Facility, The Australian National University. The 15 amino acid (aa) peptides corresponding to the conserved domains of MtCEP1 (AFQHypTTPGNSHypGVGH and EFQKTNPGHSHypGVGH—SEQ ID Nos: 451 and 452 respectively—where Hyp indicates hydroxy proline residue) and M. hapla MhCEP2 (AFRHypTAPGHSHypGVGH; SEQ ID NO: 453) were synthesized and validated as previously described in Djordjevic M A, et al. (2011), “Border sequences of Medicago truncatula CLE36 are specifically cleaved by endoproteases common to the extracellular fluids of Medicago and soybean”, J Exp Bot 62(13):4649-4659. The root length of wild-type plants was measured four days after transfer to Fåhraeus-medium containing the synthetic peptide. For the hormone assays, A17 plants were grown on Fåhraeus-medium for 10 days before transferring to Fåhraeus-medium containing 10^−6 M of the respective phytohormones; 1-aminocyclopropane-1-carboxylic acid (ACC), 6-benzylaminopurine (BAP), gibberellic acid (GA), synthetic analog of strigolactone (GR24), methyl jasmonate (MeJA) and 1-naphthaleneacetic acid (NAA).
# [1] = test system: Brachypodium distachyon BD21; test: Shoot growth of B. distachyon in layered agar medium containing CEP peptide; type: in vivo; conditions: 16 day old plants, 1 μM peptide in medium with barrier; for shoot length: vs no peptide controls, ANOVA
# Experimental: Brachypodium. distachyon BD21 seeds were sterilised by washing in 80% ethanol for 1 minute, followed by shaking in 50 ml of 10% stock sodium hypochlorite (Northfork) with 200 μl of Triton X-100 (per 50 mL) for 5 minutes, before rinsing three times in sterile water. Seeds were then stratified for 3 days in the dark at 4° C. to induce synchronized germination. Plants were grown at 21° C. on a 16/8 h light/dark cycle in a constant environment walk-in cabinet (100 μmol/m^−2/s^−2).
# Murashige and Skoog basal medium (Sigma-Aldrich Corporation, St. Louis, USA) was prepared (2.2 g/L, sterile RO water), 10% MES buffer added, and the pH adjusted to 5.7 using 1 M KOH. Falcon tubes (BD Biosciences, Australia; 50 mL max volume) containing two agar layers were prepared using the following ranges of agar concentrations: 0.2%, 0.4%, 0.5%, 0.8%, 1.0% for soft top layer and 0.5%, 1.0%, 1.5%, 2.0%, 2.5%, 3.0% and 4.0% for hard bottom layer. Type-M agar (Sigma-Aldrich Corporation) was used in all experiments. The hard layers contained 15 mL of agar and the (upper) soft layers contained 10 mL of agar. Seeds were placed one per falcon tube for root assays, with embryos facing away from the media.
# Synthetic CEP peptides corresponding to those predicted to be the final products of the BdCEP1 and AtCEP5 coding sequences (SEQ ID NOs: 483 and 11, respectively) were prepared (but the BdCEP1 peptide was synthesized missing the first two amino acids, and designated as BdCEP3a in FIGS. 16 and 17) and added to molten media (60° C.) to a final concentration of 1μM.
# Tubes were set up with optimal agar concentrations of 0.5% for soft top layer and 2.5% for hard bottom layer which induced a strong mechanical response in untreated plants. A layered agar system with no peptide addition and an un-layered system (0.5%, uniform agar concentration; 25 ml) with no peptide addition were used as controls. Each tube was fitted into an 8 slot Falcon tube rack which was covered in aluminum foil to minimize light exposure to the root systems. This system allowed tubes to be periodically removed for easy visual inspection. The upper level of the soft layer was below the level of the rack.
# Shoot length was measured at the end of the growth period. Data obtained from analyzing root system measurements were statistically analyzed.
# Arabidopsis root growth = conditions: synthetic 15 amino acid peptide at 10^−6 M to 10^−7 M; cited from earlier work
# [2] = test system: Arabidopsis thaliana (accession Col-0); test: Root growth assay of Col-0 plants on standard medium supplemented with synthetic CEP peptides; type: in vivo; conditions: 12-day-old Col-0 plants, peptide at 10−6 M (1 μM), compared to untreated plants
# Experimental: FIG. 8—CEP synthetic peptides decrease primary root length and lateral root density. (A) CEP peptides used in growth assays. (hyP) indicates hydroxyproline residues. (B) Alignment of CEP3, CEP5 and CEP9.1 peptide domains. (C) Primary root length and lateral root density of 12-day-old Col-0 plants grown on standard medium supplemented with 1 μM of the specified peptide. n≥7 plants. (D) Differential biological activity of CEP3, CEP5 and CEP9 peptide variants. The histogram indicates the lowest concentration at which a peptide elicited a significant reduction in primary root length compared to untreated plants (P<0.05). Col-0 plants were grown vertically for 12 days on standard medium supplemented with peptide concentrations ranging from 10^−6 M to 10^−12 M. n=7-16 plants. Error bars show standard error. *P≤0.05; **P≤0.01; *** P≤0.001 (two-sample t-test, Genstat).
# For root assays, seeds of Arabidopsis thaliana (accession Col-0) were surface sterilized with 6.25% bleach, stratified for 3-4 days and sown onto plates. […] Plates were imaged using an Epson scanner and images were analysed using the SmartRoot plugin (Lobet et al., 2011) in ImageJ. Statistically significant differences were determined using a two-sample t-test (Genstat 14th edition) where appropriate. […]
Substance,root phenotype (periodic bumps resembling galls) (M. truncatula roots),number of leaves per plant on average [1] [leaves],shoot length [1],also measured
AFQHypTTPGNSHypGVGH and EFQKTNPGHSHypGVGH [MtCEP1],periodic bumps induced,,,
"DSTTPGHSPSIGH (also: hydroxyproline predicted at Pro5 and Pro9, not given here for synthetic peptide) [BdCEP1, BdCEP1 peptide synthesized missing the first two amino acids, designated BdCEP3a]",,4.7,significantly longer shoots,
"CEP1: synthetic 15 amino acid CEP1 peptide of Ohyama et al., 2008 (DFRPTNPGNSPGVGH; ends and bridges not checked; listed as Arabidopsis thaliana)",,,,root growth (Arabidopsis root growth): inhibited root growth
DFRPTTPGHSPGIGH [AtCEP5],,4.9,significantly longer shoots,
"DFVPTSPGNSPGVGH [CEP9.1, synthetic non-hydroxylated CEP9.1 peptide domain]",,,,lateral root density [2]: reduced lateral root density; primary root length [2]: much weaker effect on primary root length
AFR[Hyp]TAPGHS[Hyp]GVGH [MhCEP2],periodic bumps induced,,,
